Source: patent EP0022634A1, “Acylated indole derivatives, processes for their preparation and pharmaceutical compositions and drugs comprising them” (TEIJIN LIMITED, priority 1979, dated 1981)
≈ marks a conversion by molar mass, not a printed value.

What was measured:
[1] = system: mucous membrane of the stomach; assay: Action of causing trouble to the mucous membrane of the stomach (ulcer index); type: in vivo, Male S.D. rats; details: for Incidence / Ulcer Index (mm ± S.E.): fasted rats
Procedure: Male S.D. rats (7 weeks old) were caused to fact for 24 hours while allowing them to drink water freely. A test compound dissolved in propylene glycol was orally administered to these rats, and these rats were kept while causing them to fast. Then, the rats were knocked out to death, and lesions generated in the stomach were measured in the following manner.
Ten minutes before killing the rats, 1% Evans blue was intravenously injected to the rats in a dose of 0.5 ml/rat to stain their body. Then, the rats were knocked out to death, and the stomack was taken out from each rat. 12 ml of 1% formalin was injected into the stomack to inflate it. The stomach was then dipped for more than 10 minutes in a 1% formalin solution, and fixed. After fixing, the stomach was incised along the glandular portion, and the length of a dye-leaked portion that occurred in the stomach was measured under a solid microscope, and defined as the ulcer index (mm).
For details of the test on the action of causing trouble to the mucous membrane of the stomach, see E. Adami, E. Marazzi-Uberti, and C. Turba, Arch, int. Pharmacadyn., 147, 113 (1964).

platelet aggregation [2] = assay: in vitro platelet aggregation inhibiting activity (sodium arachidonate as aggregating agent); type: cell-based, guinea pigs; details: general statement on investigations of the present inventors; test not specified
platelet aggregation [3] = assay: as above; type: cell-based; details: Cavia porcellus, Platelet, guinea pigs PRP, final concentration 0.1 millimole, minimum final concentration whose inhibiting rate exceeded 50 %, read-out: IC50
Procedure: The platelet aggregation inhibiting activities in vitro of test drugs including the acylated indole derivatives of this invention were assayed using guinea pigs PRP.
As an aggregating agent, sodium arachidonate having a final concentration of 0.1 millimole was used.
The citrated blood was centrifuged at 1000 rpm for 10 minutes at room temperature, and the supernatant liquid (PRP) was separated.
The resulting PRP was stored at room temperature, and used as early as possible. PRP stored for more than 4 hours was not used.
A compound having a free carboxylic acid as a residue, such as Indomethacin and Ibprofen, was dissolved in O.lM NaHC03 to provide a sodium salt solution having a concentration of 10 mg/ml. The solution was similarly diluted with physiological saline to prepare a solution of a test drug.
The solution was diluted with physiological saline to form a 1mM solution which was used in the test.
50 µℓ of physiological saline and 50 µℓ of the aggregating agent solution were added to 400 µℓ of PRP which had been warmed in a cuvette at 37°C in an aggregometer to aggregate the platelet. The aggregation curve was recorded for 3 minutes by an aggregometer (a product of Bryston Company). The maximum degree of aggregation in this platelet aggregation was defined as the maximum degree of aggregation in the blank.
Then, 50 µℓ of a 1mM solution of sodium arachidonate was added, and the platelet aggregation curve was recorded in the same way as in (1) above. From the curve, the maximum degree of aggregation was calculated, and the inhibiting rate was calculated in accordance with the following equation. Maximum degree of aggregation Inhibiting 100 - in the Ibprofen-added system 100 rate (%) Maximum degree of aggregation in the blank
If these inhibiting rates are not attained, the concentration of the solution of sodium arachidonate is not suitable, and therefore, its concentration should be re-adjusted, and the test shall be performed again.
50 µℓ of the test compound solution was added to 400 µℓ of PRP, and the mixture was pre-incubated in the same way as in(2) above. Then, 50 µℓ of the solution of sodium arachidonate having its concentration adjusted in (2) was added, and the aggregation curve was recorded for 3 minutes. The maximum degree of aggregation of platelet within this period was measured, and the rate of inhibition was calculated from the following equation. […] Maximum degree of aggregation Inhibiting _ 100 - in the drug-added system x 100 rate (%) Maximum degree of aggregation in the blank
For details of the in vitro platelet aggregation inhibiting test, see H. M. Davis, J. Phyllis, K. Paul and W. Terry: Thromb. […] Haemos.

platelet aggregation [4] = assay: extra vivo platelet aggregation inhibiting activity after oral administration, sodium arachidonate as aggregating agent; type: in vivo, guinea pigs; details: Cavia porcellus, 0.03 mM sodium arachidonate; for inhibition at 1 mg/kg: oral dosage 1 mg/kg; for inhibition at 10 mg/kg: oral dosage 10 mg/kg
Procedure: (§1) The platelet aggregation inhibiting activities extra vivo of drugs sampled at random were examined using guinea pigs.
(§2) The drugs were used dissolved in propylene glycol to a concentration of 1 mg/ml (when the dosage was 1 mg/kg), 10 mg/ml (when the dosage was 10 mg/kg), and 30 mg/ml (when the dosage was 30 mg/kg). The drugs were administered orally to male Hartley guinea pigs (three in a group) having a body weight of 300 to 350 g. Propylene glycol was administered to a control group.
(§3) One hour, or 4 hours after the administration, citrated blood was taken out from the subject by cardiac puncture.
(§4) The guinea pigs were caused to fast overnight before use.
(§5) The inhibiting rate of the test drugs was measured as follows: • 450 µℓ of PRP was put into a cuvette of an aggregometer, and then 50 µℓ of the aggregating agent was added. The aggregation curve was recorded for 3 minutes, and the maximum degree of aggregation was measured. As a blank, the maximum degree of aggregation of PRP of the group of guinea pigs to which propylene glycol had been administered was measured. The rate of inhibition was calculated from the following equation. [formula]
(§6) As the aggregating agent, 0.03 mM (final concentration sodium arachidonate and 5 µg/ml (final concentration) collagen floating solution were used.
For details of the extra vivo platelet aggregation inhibiting test, see Davis. H. M., Phyllis, J., Paul, K and Terry, W.: Thromb. […] Haemos.

platelet aggregation [5] = assay: extra vivo platelet aggregation inhibiting activity after oral administration, collagen as aggregating agent; type: in vivo, guinea pigs; details: Cavia porcellus, po
Procedure: The collagent floating solution made by Hormone Company of west Germany was diluted with physiological saline to a concentration of 100 µg/ml for use in the test.
as §1, §2, §3, §4, §5, §6
For details of the extra vivo platelet aggregation inhibiting test, see Davis. H. M., Phyllis, J., Paul, K and Terry, W.: Thromb. Res. 11, 217-226 (1977) and Anderson R. E. and Foulks J. G.: Thromb. Haemos. 36, 343-359 (1976).

[6] = oral dosage 400 mg/kg in propylene glycol
[7] = blood taken 1 hour after administration, read-out: Rate of inhibition of platelet aggregation, Sodium arachidonate, After 1 hour
[8] = blood taken 4 hours after administration, read-out: Rate of inhibition of platelet aggregation, Sodium arachidonate, After 4 hours
[9] = 1 h, read-out: Rate of inhibition of platelet aggregation, Collagen, After 1 hour
[10] = 4 h, read-out: Rate of inhibition of platelet aggregation, Collagen, After 4 hours
[11] = oral dosage 100 mg/kg in propylene glycol
[12] = oral dosage 200 mg/kg in propylene glycol

| SMILES | Incidence [1, 6] [%] | Ulcer Index (mm ± S.E.) [1, 6] [mm] | IC50 (platelet aggregation [3]) [µg/mL] | inhibition at 10 mg/kg (platelet aggregation [4]; [7]) [%] | inhibition at 10 mg/kg (platelet aggregation [4]; [8]) [%] | inhibition at 10 mg/kg (platelet aggregation [5]; [9]) [%] | inhibition at 10 mg/kg (platelet aggregation [5]; [10]) [%] | also measured |
| --- | --- | --- | --- | --- | --- | --- | --- | --- |
| CCCCC(C)n1c(C)c(C(=O)c2ccccc2)c2ccccc21 (centres unmarked) [(705), 3-Benzoyl-1-(2-hexyl)-2-methylindole] | 0 | 0 |  |  |  |  |  |  |
| CC(C)c1[nH]c2ccccc2c1C(=O)c1cccnc1 [drawing 4, reference compound] |  |  |  |  |  |  |  | tendency to induce ulcer formation ([1]; general statement on investigations of the present inventors, test not specified): unnegligible tendency to induce ulcer formation; action of inhibiting platelet aggregation (platelet aggregation [2]): has an action of inhibiting platelet aggregation |
| COCC(C)n1c(C)c(C(=O)c2ccccc2)c2ccccc21 (centres unmarked) [(300), 3-Benzoyl-1-(1-methoxy-2-propyl)-2-methylindole] | 66.7 | 1.4 ± 0.5 | 0.055 (≈ 0.179 µM) |  |  |  |  | inhibition at 1 mg/kg (platelet aggregation [4]; [7]): 51.3%; inhibition at 1 mg/kg (platelet aggregation [4]; [8]): 67.5%; inhibition at 1 mg/kg (platelet aggregation [5]; [9]): 100%; inhibition at 1 mg/kg (platelet aggregation [5]; [10]): 71.4%; Incidence [1, 11]: 40%; Ulcer Index (mm ± S.E.) [1, 11]: 1.1 ± 0.5 mm; Incidence [1, 12]: 55.6%; Ulcer Index (mm ± S.E.) [1, 12]: 1.2 ± 0.3 mm |
| CCOCC(C)n1c(C)c(C(=O)c2ccccc2)c2ccccc21 (centres unmarked) [(302), 3-Benzoyl-1-(1-ethoxy-2-propyl)-2-methylindole] | 50 | 0.9 ± 0.3 | 0.055 (≈ 0.171 µM) | 100 | 100 |  |  | Incidence [1, 12]: 33.3%; Ulcer Index (mm ± S.E.) [1, 12]: 0.3 ± 0.2 mm |
| CC(=O)C(C)n1c(C)c(C(=O)c2ccccc2)c2ccccc21 (stereo not drawn) [(800), 3-Benzoyl-2-methyl-l-(3-oxo-2-butyl)indole] |  |  | 0.05 to 0.1 (≈ 0.164 to 0.327 µM) | 100 | 66.7 | 100 | 48.4 |  |
| CC(C)c1[nH]c2ccccc2c1C(=O)c1cccnc1 [Comparison 3, reference compound] | 100 | 7.9 ± 2.3 | 0.075 (≈ 0.284 µM) |  |  |  |  | Incidence [1, 11]: 66.7%; Ulcer Index (mm ± S.E.) [1, 11]: 1.5 ± 0.6 mm |
| CCOCC(CC)n1c(C)c(C(=O)c2ccccc2)c2ccccc21 (centres unmarked) [(312), 3-Benzoyl-1-(1-ethoxy-2-butyl)-2-methylindole] |  |  | 0.25 (≈ 0.745 µM) | 100 | 100 | 100 | 100 |  |
| COCCC(C)n1c(C)c(C(=O)c2ccccc2)c2ccccc21 (centres unmarked) [(306), 3-Benzoyl-1-(4-methoxy-2-butyl)-2-methylindole] |  |  | 0.25 (≈ 0.778 µM) | 100 | 100 | 100 | 100 |  |
| COCC(C)n1c(C)c(C(=O)c2ccccc2)c2cc(OC)ccc21 (centres unmarked) [(318), 3-Benzoyl-5-methoxy-1-(1-methoxy-2-propyl)-2-methylindole] |  |  | 0.75 (≈ 2.22 µM) | 100 | 14 | 97.7 | 0.5 |  |
| Cc1c(C(=O)c2ccccc2)c2ccccc2n1C(C)CSc1ccccn1 (centres unmarked) [(405), 3-Benzoyl-2 methyl-1-[1-(2-pyridylthio)-2-propyl]indole] |  |  | 0.5 (≈ 1.29 µM) | 100 | 100 | 100 | 100 |  |
| Cc1c(C(=O)c2ccccc2)c2ccccc2n1C(C)CCO (stereo not drawn) [(105), 3-Benzoyl-l-(4-hydroxy-2-butyl)-2-methylindole] |  |  | 0.075 (≈ 0.244 µM) | 100 | 100 | 100 | 100 |  |
| CCCCCC(C)n1c(C)c(C(=O)c2ccccc2)c2ccccc21 (stereo not drawn) [(706), 3-Benzoyl-l-(2-heptyl)-2-methylindole] | 16.7 | 0.1 |  |  |  |  |  |  |
